# Target: T1, IGF-1R Ba/F3 (Homo sapiens, UniProt P08069)
# T1 construct: fused on or other part: TEL- (or BCR-) IGF-1R in Ba/F3: the kinase part holds the site
# Test: Ba/F3 Cell Viability Inhibition Assay (IGF-1R Ba/F3)
# Assay type: cell-based, murine
# Details: Tel-TK transformed Ba/F3 cells, 48 hours, Britelite luminescence
# Excerpt: The IC50 of a drug may be determined constructing a dose-response curve and examining the effect of different concentrations of antagonist on reversing agonist activity. IC50 values may be calculated for a given antagonist by determining the concentration needed to inhibit half of the maximum biological response of the agonist. To calculate IC50 values, a series of dose-response data (e.g., drug concentrations x1, x2, . . . , xn and growth inhibition y1, y2, . . . , yn, the values of y are in the range of 0-1) is generated. IC50 values may be determined by a computer-aided system using the formula: y=D+((A−D)/(1+10^(x-log(IC50)B) • where A is the ratio of growth inhibition between lowest drug concentration and control; B is the slope of sigmoidal curvel; and D is the ratio of growth inhibition between highest drug concentration and control.
# Ba/F3 is a murine IL-3-dependent pro-B lymphoma cell line. Parental Ba/F3 cells are used to generate a panel of sublines whose proliferation and survival is rendered IL-3-independent by stable transduction with individual tyrosine kinases activated by fusion with the amino-terminal portion of TEL (amino acid 1-375) or BCR. In order to generate Ba/F3 cell lines transformed by Tel-Tyrosine Kinase (TK) fusions, parental Ba/F3 cells are infected with a retrovirus harboring each TEL-fusion kinase and subjected to puromycin selection and IL-3 withdrawal to obtain IL-3-independent, transformed Ba/F3 cells.
# Each transformed Ba/F3 cells are cultured in RPMI-1640 media (Gibco Cat #11875093, Carlsbad, Calif.) supplemented with 10% FBS (Hyclone Cat #SV30014.03, Logan, Utah), 4.5 g/L glucose (Sigma #G5400, St. Louis, Mo.), 1.5 g/L sodium bicarbonate (Biowhittaker #17-613E, Walkersville, Md.) and Pen/Strep (Gibco #10378-016, Carlsbad, Calif.). Cells are splitted twice weekly.
# The potency of test compounds against various Tel-TK transformed Ba/F3 lines is determined as follows. Exponentially growing BaF3 Tel-TK cells are diluted in fresh medium to 75,000 cells/mL and seeded into 384-well plates (3750 cells/well) at 50 μL/well using a μFill liquid dispenser (BioTek, Winooski, Vt., USA). Duplicate plates are run for each cell line. Test and control compounds are serially diluted with DMSO and arrayed in a polypropylene 384-well plate. […] of compound is transferred into the assay plates using a pin-transfer device, and the plates are incubated at 37° C. (5% CO2) for 48 hours. 25 μL Britelite (Perkin Elmer) is added and luminescence is quantified using Analyst GT (Molecular Devices). Custom curve-fitting software is used to produce a logistic fit of percent cell viability as a function of the logarithm of inhibitor concentration. The IC50 is interpolated as the concentration of compound needed to reduce cell viability to 50% of a DMSO control. Parental Ba/F3 cells that are maintained and cultured in presence of IL-3 (1 ng/ml in final) are diluted in fresh medium containing IL-3 (1 ng/ml in final) to 75,000 cells/mL following the same procedure as described above.
# T1 sequence (P08069 999-1274 limits assumed): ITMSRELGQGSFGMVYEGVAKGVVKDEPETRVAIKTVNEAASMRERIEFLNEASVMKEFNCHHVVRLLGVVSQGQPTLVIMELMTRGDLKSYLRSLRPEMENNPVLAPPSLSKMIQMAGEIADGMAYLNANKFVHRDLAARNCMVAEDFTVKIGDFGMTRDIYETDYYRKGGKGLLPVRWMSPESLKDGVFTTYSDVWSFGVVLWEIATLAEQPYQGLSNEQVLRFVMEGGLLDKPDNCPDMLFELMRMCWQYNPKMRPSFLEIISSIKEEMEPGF
row,SMILES,IC50
1,"Cc1cc(Nc2nc(Nc3cc(C4CCN(C(C)C(N)=O)CC4)c(F)cc3C)ncc2Cl)n[nH]1 (stereo not drawn) [Compound 48, 2-(4-(5-(5-chloro-4-(5-methyl-1H-pyrazol-3-ylamino)pyrimidin-2-ylamino)-2-fluoro-4-methylphenyl)piperidin-1-yl)propanamide]",3680 nM
2,"Cc1cc(Nc2nc(Nc3cc(C)c(C4CCN(C(=O)CCCN5CCOCC5)CC4)cc3C)ncc2Cl)n[nH]1 [Compound 224, 1-(4-(4-(5-Chloro-4-(5-methyl-1H-pyrazol-3-ylamino)pyrimidin-2-ylamino)-2,5-dimethylphenyl)piperidin-1-yl)-4-morpholinobutan-1-one]",20 nM
3,"Cc1cc(C2CCNCC2)c(C)cc1Nc1ncc(Cl)c(Nc2cc(C3CC3)[nH]n2)n1 [Compound 18, 5-chloro-N4-(5-cyclopropyl-1H-pyrazol-3-yl)-N2-(2,5-dimethyl-4-(piperidin-4-yl)phenyl)pyrimidine-2,4-diamine]",95 nM
4,"Cc1cc(Nc2nc(Nc3cc(C)c(C4CCCCN4Cc4c(C)noc4C)cc3C)ncc2Cl)n[nH]1 (stereo not drawn) [Compound 191, 5-chloro-N2-(4-(1-((3,5-dimethylisoxazol-4-yl)methyl)piperidin-2-yl)-2,5-dimethylphenyl)-N4-(5-methyl-1H-pyrazol-3-yl)pyrimidine-2,4-diamine]",113 nM
5,"Cc1cc(Nc2nc(Nc3cc(C)c([C@H]4COC(=O)N4)cc3C)ncc2Cl)n[nH]1 [Compound 230, (S)-4-(4-(5-chloro-4-(5-methyl-1H-pyrazol-3-ylamino)pyrimidin-2-ylamino)-2,5-dimethylphenyl)oxazolidin-2-one]",40 nM
6,"Cc1cc(C2CCN(C(=O)C3(N)CC3)CC2)c(C)cc1Nc1ncc(Cl)c(Nc2cc(C3CC3)[nH]n2)n1 [Compound 188, (1-aminocyclopropyl)(4-(4-(5-chloro-4-(5-cyclopropyl-1H-pyrazol-3-ylamino)pyrimidin-2-ylamino)-2,5-dimethylphenyl)piperidin-1-yl)methanone]",19 nM
7,"Cc1cc(Nc2nc(Nc3cc(C)c(C4CCN(CC(O)C(F)(F)F)CC4)cc3F)ncc2Cl)n[nH]1 (stereo not drawn) [Compound 30, 3-(4-(4-(5-chloro-4-(5-methyl-1H-pyrazol-3-ylamino)pyrimidin-2-ylamino)-5-fluoro-2-methylphenyl)piperidin-1-yl)-1,1,1-trifluoropropan-2-ol]",71 nM
8,"Cc1cc(Nc2nc(Nc3cc(C(F)(F)F)c(N4CCN(C)CC4)cc3C)ncc2Cl)n[nH]1 [Compound 156, 5-chloro-N4-(5-methyl-1H-pyrazol-3-yl)-N2-(2-methyl-4-(4-methylpiperazin-1-yl)-5-(trifluoromethyl)phenyl)pyrimidine-2,4-diamine]",40 nM
9,"CNC(=O)CN1CCC(c2cc(C)c(Nc3ncc(Cl)c(Nc4cc(C)[nH]n4)n3)cc2Cl)CC1 [Compound 45, 2-(4-(2-chloro-4-(5-chloro-4-(5-methyl-1H-pyrazol-3-ylamino)pyrimidin-2-ylamino)-5-methylphenyl)piperidin-1-yl)-N-methylacetamide]",18 nM
10,"Cc1cc(Nc2nc(Nc3cc(Cl)c(C4CCN(CCC(F)(F)F)CC4)cc3C)ncc2Cl)n[nH]1 [Compound 27, 5-chloro-N2-(5-chloro-2-methyl-4-(1-(3,3,3-trifluoropropyl)piperidin-4-yl)phenyl)-N4-(5-methyl-1H-pyrazol-3-yl)pyrimidine-2,4-diamine]",44 nM
11,"Cc1cc(Nc2nc(Nc3cc(C)c(C4CCN(C(=O)Cn5cccc5)CC4)cc3F)ncc2Cl)n[nH]1 [Compound 100, 1-(4-(4-(5-chloro-4-(5-methyl-1H-pyrazol-3-ylamino)pyrimidin-2-ylamino)-5-fluoro-2-methylphenyl)piperidin-1-yl)-2-(1H-pyrrol-1-yl)ethanone]",25 nM
12,"CNC1(C(=O)N2CCC(c3cc(C)c(Nc4ncc(Cl)c(Nc5cc(C)[nH]n5)n4)cc3C)CC2)CC1 [Compound 90, (4-(4-(5-chloro-4-(5-methyl-1H-pyrazol-3-ylamino)pyrimidin-2-ylamino)-2,5-dimethylphenyl)piperidin-1-yl)(1-(methylamino)cyclopropyl)methanone]",5 nM
13,Cc1cc(Nc2nc(Nc3cc(C)c(C4CCN([C@@H](C)C(N)=O)CC4)cc3F)ncc2Cl)n[nH]1 [Compound 163],56 nM
14,"Cc1cc(Nc2nc(Nc3cc(C#N)c(C4CCN(C)CC4)cc3C)ncc2Cl)n[nH]1 [Compound 286, 5-(5-chloro-4-(5-methyl-1H-pyrazol-3-ylamino)pyrimidin-2-ylamino)-4-methyl-2-(1-methylpiperidin-4-yl)benzonitrile]",37 nM
15,"Cc1cc(Nc2nc(Nc3cc(C)c(C4CCNCC4)cc3F)ncc2Cl)n[nH]1 [Compound 2, 5-chloro-N2-(2-fluoro-5-methyl-4-(piperidin-4-yl)phenyl)-N4-(5-methyl-1H-pyrazol-3-yl)pyrimidine-2,4-diamine]",50 nM
16,"CCN(CC)CC(=O)N1CCC(c2cc(F)c(Nc3ncc(Cl)c(Nc4cc(C)[nH]n4)n3)cc2C)CC1 [Compound 81, 1-(4-(4-(5-chloro-4-(5-methyl-1H-pyrazol-3-ylamino)pyrimidin-2-ylamino)-5-fluoro-2-methylphenyl)piperidin-1-yl)-2-(diethylamino)ethanone]",30 nM
17,"Cc1cc(Nc2nc(Nc3cc(C)c(C4CCN(CCC(=O)N5CCCC5)CC4)cc3F)ncc2Cl)n[nH]1 [Compound 242, 3-(4-(4-(5-chloro-4-(5-methyl-1H-pyrazol-3-ylamino)pyrimidin-2-ylamino)-5-fluoro-2-methylphenyl)piperidin-1-yl)-1-(pyrrolidin-1-yl)propan-1-one]",60 nM
18,"Cc1cc(Nc2nc(Nc3cc(C)c(C4CCN(Cc5noc(C(C)(C)C)n5)CC4)cc3C)ncc2Cl)n[nH]1 [Compound 266, N2-(4-(1-((5-tert-butyl-1,2,4-oxadiazol-3-yl)methyl)piperidin-4-yl)-2,5-dimethylphenyl)-5-chloro-N4-(5-methyl-1H-pyrazol-3-yl)pyrimidine-2,4-diamine]",25 nM
19,"Cc1cc(Nc2nc(Nc3cc(C)c(C4CCN(C5CN(S(C)(=O)=O)C5)CC4)cc3F)ncc2Cl)n[nH]1 [Compound 300, 5-chloro-N2-(2-fluoro-5-methyl-4-(1-(1-(methylsulfonyl)azetidin-3-yl)piperidin-4-yl)phenyl)-N4-(5-methyl-1H-pyrazol-3-yl)pyrimidine-2,4-diamine]",32 nM
20,"Cc1cc(Nc2nc(Nc3cc(C)c(C4CCN(CCCS(=O)(=O)N5CCCC5)CC4)cc3F)ncc2Cl)n[nH]1 [Compound 244, 5-chloro-N2-(2-fluoro-5-methyl-4-(1-(3-(pyrrolidin-1-ylsulfonyl)propyl)piperidin-4-yl)phenyl)-N4-(5-methyl-1H-pyrazol-3-yl)pyrimidine-2,4-diamine]",84 nM
21,"Cc1cc(Nc2nc(Nc3cc(C)c(C4CCN(C(=O)OCCN(C)C)CC4)cc3F)ncc2Cl)n[nH]1 [Compound 108, (dimethylamino)ethyl 4-(4-(5-chloro-4-(5-methyl-1H-pyrazol-3-ylamino)pyrimidin-2-ylamino)-5-fluoro-2-methylphenyl)piperidine-1-carboxylate]",53 nM
22,"Cc1cc(Nc2nc(Nc3cc(C)c(C4CCN(CC5CC5(F)F)CC4)cc3C)ncc2Cl)n[nH]1 (stereo not drawn) [Compound 249, 5-chloro-N2-(4-(1-((2,2-difluorocyclopropyl)methyl)piperidin-4-yl)-2,5-dimethylphenyl)-N4-(5-methyl-1H-pyrazol-3-yl)pyrimidine-2,4-diamine]",32 nM
23,"CCNC1(C(=O)N2CCC(c3cc(C)c(Nc4ncc(Cl)c(Nc5cc(C)[nH]n5)n4)cc3C)CC2)CC1 [Compound 170, (4-(4-(5-chloro-4-(5-methyl-1H-pyrazol-3-ylamino)pyrimidin-2-ylamino)-2,5-dimethylphenyl)piperidin-1-yl)(1-(ethylamino)cyclopropyl)methanone]",3 nM
24,"Cc1cc(Nc2nc(Nc3cc(C)c(C4CCN(S(C)(=O)=O)CC4)cc3F)ncc2Cl)n[nH]1 [Compound 62, 5-Chloro-N2-(2-fluoro-5-methyl-4-(1-(methylsulfonyl)piperidin-4-yl)phenyl)-N4-(5-methyl-1H-pyrazol-3-yl)pyrimidine-2,4-diamine]",5 nM
